Test results taken from patent publication US20120225777A1, “Azolylmethyloxiranes, Their Use for Controlling Phytopathogenic Fungi and Compositions Comprising Them” (BASF SE, priority 2006, published 2012).

Assays:
[1] = tested on: Sphaerotheca fuliginea; experiment: Activity against mildew on cucumber leaves caused by Sphaerotheca fuliginea, protective application (Sphrfu P1), greenhouse; type: in vivo; settings: Comparative Example 1, Table 9, cucumber seedlings, 7 days, untreated 90
Protocol: (§1) The active compounds were prepared separately or jointly as a stock solution comprising 25 mg of active compound which was made up to 10 ml using a mixture of acetone and/or DMSO and the emulsifier Wettol EM 31 (wetting agent having emulsifying and dispersing action based on ethoxylated alkylphenols) in a volume ratio of solvent/emulsifier of 99:1. The mixture was then made up to 100 ml with water. This stock solution was diluted with the solvent/emulsifier/water mixture described to give the concentration of active compounds stated below.
Leaves of potted cucumber seedlings were, at the cotyledon stage, sprayed to runoff point with an aqueous suspension having the active compound concentration stated below. 20 hours after the spray coating had dried on, the plants were inoculated with an aqueous spore suspension of mildew of cucumber (Sphaerotheca fuliginea). The plants were then cultivated in a greenhouse at temperatures between 20 and 24° C. and 60 to 80% relative atmospheric humidity for 7 days. The extent of the mildew development was then determined visually in % infection of the cotyledon area.

[2] = tested on: Pyrenophora [syn. Drechslera] teres; experiment: Activity against net blotch of barley caused by Pyrenophora teres, 1 day protective application (Pymte P1), greenhouse; type: in vivo, Pyrenophora teres on barley; settings: Comparative Example 2, Table 10, barley seedlings, 6 days, untreated 90
Protocol: as §1
Leaves of potted barley seedlings were sprayed to runoff point with an aqueous suspension having the active compound concentration stated below. 24 hours after the spray coating had dried on, the test plants were inoculated with an aqueous spore suspension of Pyrenophora [syn. Drechslera] teres, the net blotch pathogen. The test plants were then placed in a greenhouse at temperatures between 20 and 24° C. and at 95 to 100% relative atmospheric humidity. After 6 days, the extent of the development of the disease was determined visually in % infection of the entire leaf area.

SMILES | Infection in % at 63 ppm for Sphrfu P1 [1] [%] | Infection in % at 4 ppm for Pyrnte P1 [2] [%]
Cc1ccccc1[C@H]1O[C@]1(Cn1cncn1)c1ccc(F)cc1F [B 255 from EP-A 0 421 125] | 90 | –
Cc1ccccc1[C@H]1O[C@]1(Cn1cncn1)c1cc(F)c(F)cc1F (racemic) [Compound 8.7] | 0 | –
Fc1cc(F)c([C@@]2(Cn3cncn3)O[C@@H]2c2ccccc2Cl)cc1F (racemic) [Compound 8.6] | – | 40
Fc1ccc([C@@]2(Cn3cncn3)O[C@@H]2c2ccccc2Cl)cc1 [Comp. 8 of EP-A 0 196 038] | – | 90
